Several values for one entry are separate records, joined by “and”; a condition that tells them apart may be missing. Equal entries are not always repeated. Entries after “also recorded” stand apart in the source; their conditions may differ. Where two headings read alike, the source gives them in different places. Values belong to the compound of their own block, whether it stands above or below them.
Tests used:
HCV IRES subdomain IIa [1] = test: FRET assay monitoring ligand-induced conformational change of Cy3/Cy5-labelled HCV IRES subdomain IIa; type: biochemical, hepatitis C virus; conditions: for FRET-signal change / conformational change of HCV IRES subdomain IIa, in words: pre-screening 1000, 100, 10 and 0.001 μM
Description: For the FRET assay, a two stranded HCV IRES subdomain IIa carrying a 5′-Cy3-label on one and 5′-Cy5-label on the other strand (Cy3-[…], Cy5-[…], Biomers.net GmbH) was used as described previously.[22,53] All samples containing labelled RNA were treated under light protection. FRET experiments were performed on a Tecan Spark 10 M plate reader (excitation/emission: 480/670 nm) using black half area 96 well microplates (Greiner Bio-One), based on a protocol by Zhou et al.[53] The 5′-Cy3- and 5′-Cy5-labelled single strands were annealed by heating to 75 °C in FRET buffer (10 mM HEPES pH 7.0, 2 mM MgCl2) and cooled down to room temperature for at least 20 min. The 5′-Cy3/Cy5-labelled RNA was diluted to 100 nM in FRET buffer and supplemented with compounds 8–28 in appropriate concentrations. Compounds 4 and 5 were used as positive controls. For the initial screening, compounds were added in final concentrations of 1000, 100, 10 and 0.001 μM (Fig. S4 ^†). If a concentration dependent reduction of the FRET signal (Cy5-emission) was observed, EC50-values were determined using ligand concentrations from 1 mM to 100 nM in 3.16-fold (semi-logarithmic) dilution series. For those compounds, the Cy3 emission was measured at 535 nm to confirm a conformational change dependent reduction in the Cy5 emission signal via Cy3 emission increase (Fig. S7 ^†). For each experiment, one DMSO negative control was carried out. The final DMSO concentration was always 2%. Excitation and emission spectra were recorded for the Cy3/Cy5-labelled RNA (100 nM) in FRET buffer to confirm excitation (Cy3) and emission (Cy5) wavelength as well as for each compound (1 μM) in FRET buffer to exclude any interference with the cyanine dyes. All measurements were performed at least as triplicates for screening and EC50-determination.
(§1) FRET experiments were analyzed using GraphPad Prism (version 8.0.1., GraphPad Software, Boston, Massachusetts USA, https://www.graphpad.com).

[2] = tested on: HCV IRES subdomain IIa in presence of total RNA from yeast; test: Selectivity FRET assay in presence of competing total RNA from yeast; type: biochemical, hepatitis C virus; conditions: 1:5 m/m HCV IRES : total RNA from yeast
Description: For the HCV IRES-binding compounds (4, 5, 8–13, 8a–8c), a selectivity FRET assay in presence of total RNA from yeast (Roche) was performed. The ratio of the FRET HCV IRES subdomain IIa construct and the total RNA was set to 1 : 5 m/m. The preparation of the labelled RNA and the compounds was the same as in the binding assay. The yeast RNA was diluted to 7.88 mg L^−1 and supplemented with 100 nM HCV IRES and appropriate concentrations of the compounds (3.16-fold dilution series) in FRET buffer (Fig. S10 ^†). For each compound, triplicate measurements were performed. For each experiment, one DMSO negative control was carried out. The final DMSO concentration was always 2%.
as §1

HCV IRES subdomain IIa [3] = target: HCV IRES subdomain IIa; set-up: method as in PMID 16279767; conditions: previously reported; read-out: KD (MS assay); cited from earlier work
HCV IRES subdomain IIa [4] = tested on: HCV IRES subdomain IIa; set-up: method as in PMID 16279767, PMID 24930829, PMID 27775338; conditions: previously reported, Fig. 1; read-out: EC50 (FRET assay); cited from earlier work
HCV IRES subdomain IIa [5] = type: binding, hepatitis C virus; conditions: for Kd / MST KD: 30 nM Cy5-labelled RNA, 10 mM HEPES pH 7.0, 2 mM MgCl2, 2% DMSO, ≥ = no saturation, n.b. no binding observed; for Kd: read-out: MST KD; for binding to HCV IRES subdomain IIa (MST-shift), in words: pre-screening 1000 (or 316), 100, 10 and 0.001 μM
Description: For the MST assay, the same sequence of the two stranded HCV IRES subdomain IIa as for the FRET assay was used. One strand was 5′-Cy5-labelled and the other strand was unmodified ([…], Cy5-[…], Biomers.net GmbH). All samples containing labelled RNA were treated under light protection. MST experiments were performed on a Monolith NT.115 from NanoTemper Technologies using standard uncoated capillaries. The strands were annealed by heating to 75 °C in MST buffer (10 mM HEPES pH 7.0, 2 mM MgCl2) and cooled down to room temperature for at least 20 min. The 5′-Cy5-labelled HCV IRES domain IIa RNA was diluted to 30 nM in MST buffer and supplemented with compounds 8–25 in appropriate concentrations. Compounds 4 and 5 were used as positive controls. For the initial screening, compounds were added to final concentrations of 1000 (or 316 if limited by solubility), 100, 10 and 0.001 μM (Fig. S5 ^†). If a concentration-dependent shift of thermophoresis was observed, KD-values were determined using concentrations ranging from 1 mM (if permitted by solubility, otherwise starting from 316 or 100 μM) to 0.01 μM in a 3.16-fold (semi-logarithmic) dilution series. For each experiment, one DMSO negative control was carried out. Final DMSO concentration was always 2%.
(§2) Off-target counter screens by MST were performed as described previously.[31,84] Briefly, the 5′-Cy5-labelled Tte preQ1-Riboswitch aptamer domain (Biomers.net GmbH) was heated to 75 °C for 5 min, cooled down to room temperature for at least 20 min and then diluted to 20 nM in MST buffer (50 mM Tris-HCl pH 7.5, 100 mM KCl, 25 mM MgCl2) and supplemented with compounds 4, 5, 8–13, 18, 21, 22 and 26 to final concentrations of 1000, 100, 10 and 0.001 μM. PreQ1 was used as a positive control. The 5′-Cy5-labelled B. angulatum SAM VI-Riboswitch aptamer domain (Eurofins Genomics GmbH) was heated to 75 °C for 5 min, cooled down to room temperature for at least 20 min and then diluted to 20 nM in MST buffer (50 mM Tris-HCl pH 7.5, 100 mM KCl, 25 mM MgCl2) and supplemented with compounds 5, 9 and 28 to final concentrations of 1000, 100, 10 and 0.001 μM. SAM was used as a positive control. For each experiment, one DMSO negative control was carried out. The final DMSO concentration was 2%. All measurements were performed at least as duplicates for pre-screening and triplicates for KD-determination. MST measurements were analyzed from signals after 18 s laser on-time using the MO.Affinity Analysis software (version 2.3) and exported for statistical analysis and plotting in GraphPad Prism (version 8.0.1., GraphPad Software, Boston, Massachusetts USA, https://www.graphpad.com).

[6] = target: Tte preQ1-Riboswitch aptamer domain; test: MST off-target counter screen, preQ1-riboswitch aptamer domain; type: binding, Thermoanaerobacter tengcongensis; conditions: for preQ1-riboswitch binding / selectivity (MST-shift), in words: 1000, 100, 10 and 0.001 μM
Description: as §2

[7] = tested on: SAM VI-Riboswitch aptamer domain; test: MST off-target counter screen, SAM VI-riboswitch aptamer domain; type: binding, B. angulatum
Description: as §2

HCV IRES subdomain IIa [8] = tested on: HCV IRES subdomain IIa; set-up: method as in PMID 25349403; conditions: previous study, cited from earlier work
[9] = 100 nM Cy3/Cy5-labelled RNA, 10 mM HEPES pH 7.0, 2 mM MgCl2, 2% DMSO, ≥ = lower limit

SMILES: CN(C)CCCn1c(N)nc2ccccc21 [Compound 4]
EC50 (HCV IRES subdomain IIa [1]; [9]): 0.078 ± 0.035 mM
FRET result in presence of competing total RNA, in words [2]: lower EC50-values
Kd (HCV IRES subdomain IIa [3]): 100 µM and ≥ 100 µM
EC50 (HCV IRES subdomain IIa [4]): 50 µM

SMILES: CN(C)CCCNc1ccc2nc(N)oc2c1 [Compound 6]
EC50 (HCV IRES subdomain IIa [4]): 25 µM

SMILES: NC1=Nc2ccccc2C2(CC2)N1 [Compound 7]
EC50 (HCV IRES subdomain IIa [4]): 100 µM

SMILES: Nc1nc(N2CCN(Cc3c(Cl)ccc(O)c3Cl)CC2)cc(=O)[nH]1 [Compound 9]
EC50 (HCV IRES subdomain IIa [1]; [9]): 0.217 ± 0.041 mM
FRET-signal change / conformational change of HCV IRES subdomain IIa, in words (HCV IRES subdomain IIa [1]): signals in the FRET assay
MST KD (HCV IRES subdomain IIa [5]): n.b.
Kd ([6]; 20 nM Cy5-labelled aptamer, read-out: KD preQ1 riboswitch (MST)): 7.8 µM
preQ1-riboswitch binding / selectivity (MST-shift), in words [6]: Weak preQ1-riboswitch binding; also recorded: binding to the preQ1-riboswitch at very high concentrations
SAM-VI-riboswitch binding (MST-shift), in words ([7]; 1000, 100, 10 and 0.001 μM): no MST shift; also recorded: no binding; also recorded: no general RNA-promiscuity
FRET result in presence of competing total RNA, in words [2]: lower EC50-values; also recorded: reduced

SMILES: CC(C)NCC(O)COc1ccc2[nH]cc(CCN)c2c1 (centres unmarked) [Compound 11]
EC50 (HCV IRES subdomain IIa [1]; [9]): ≥ 0.5 mM
Kd (HCV IRES subdomain IIa [5]): ≥ 100 µM

SMILES: NC1=Nc2nc3ccccc3n2C(C2CC2)N1 (centres unmarked) [Compound 18]
FRET-signal change / conformational change of HCV IRES subdomain IIa, in words (HCV IRES subdomain IIa [1]): no large changes in FRET-signals; also recorded: no changes in the FRET-assay

SMILES: COc1cccc(C2NC(N)=Nc3nc4ccccc4n32)c1 (centres unmarked) [Compound 21]
FRET-signal change / conformational change of HCV IRES subdomain IIa, in words (HCV IRES subdomain IIa [1]): no large changes in FRET-signals; also recorded: no changes in the FRET-assay

SMILES: NC1=NC(c2ccccc2)n2c(nc3ccccc32)N1 (centres unmarked) [Compound 22]
FRET-signal change / conformational change of HCV IRES subdomain IIa, in words (HCV IRES subdomain IIa [1]): no large changes in FRET-signals; also recorded: no changes in the FRET-assay

SMILES: Nc1nc2[nH]cnc2c(=O)[nH]1 [G]
HCV IRES subdomain IIa binding, in words (HCV IRES subdomain IIa [8]): weak binding behavior
EC50 (HCV IRES subdomain IIa [8]; read-out: EC50 HCV IRES subdomain IIa binding): 1050 µM

SMILES: N=C(N)NCCC[C@H](N)C(=O)O [arginine]
HCV IRES subdomain IIa binding, in words (HCV IRES subdomain IIa [8]): no binding

Second part, led by results:

EC50 (HCV IRES subdomain IIa [1]; [9]): 0.413 ± 0.097 mM
Kd (HCV IRES subdomain IIa [5]): ≥ 440 µM
SMILES: CCOc1ccc2c(C)nc(NC(=N)NC)nc2c1 [Compound 8]

EC50 (HCV IRES subdomain IIa [1]; [9]): 0.088 ± 0.012 mM
Kd (HCV IRES subdomain IIa [5]): 189 ± 20 µM
SMILES: CCOc1ccc2c(C)nc(NC(=N)N)nc2c1 [Compound 8a]

EC50 (HCV IRES subdomain IIa [1]; [9]): 0.061 ± 0.019 mM
lipophilic ligand efficiency LLE (HCV IRES subdomain IIa [5]): 2.9
Kd (HCV IRES subdomain IIa [5]): 88 ± 2 µM
SMILES: CNC(=N)Nc1nc(C)c2ccc(OC)cc2n1 [Compound 8b]

EC50 (HCV IRES subdomain IIa [1]; [9]): 0.12 ± 0.024 mM
Kd (HCV IRES subdomain IIa [5]): 134 ± 43 µM
SMILES: COc1ccc2c(C)nc(NC(=N)N)nc2c1 [Compound 8c]

EC50 (HCV IRES subdomain IIa [1]; [9]): ≥ 0.5 mM
MST KD (HCV IRES subdomain IIa [5]): n.b.
SMILES: NC(=O)c1c[nH]c2ccc(NC(=O)CCc3cc4n(n3)CCCNC4)cc12 [Compound 10]
Cy3-emission change in FRET assay, in words (HCV IRES subdomain IIa [1]; Cy3 emission at 535 nm): no increase of Cy3-emission
FRET-signal change / conformational change of HCV IRES subdomain IIa, in words (HCV IRES subdomain IIa [1]): signals in the FRET assay

EC50 (HCV IRES subdomain IIa [1]; [9]): ≥ 0.3 mM
Kd (HCV IRES subdomain IIa [5]): ≥ 50 µM
SMILES: Nc1cc(-c2ccc3[nH]ncc3c2)c2cc[nH]c2n1 [Compound 12]

EC50 (HCV IRES subdomain IIa [1]; [9]): ≥ 1 mM
EC50 (HCV IRES subdomain IIa [1]; as printed in text in mM): ≥ 1 mM
Kd (HCV IRES subdomain IIa [5]): ≥ 100 µM
SMILES: NC1=NC(c2cn[nH]c2-c2cccc(O)c2)n2c(nc3ccccc32)N1 (centres unmarked) [Compound 13]

EC50 (HCV IRES subdomain IIa [1]; [9]): ≥ 0.5 mM
Kd (HCV IRES subdomain IIa [5]): ≥ 100 µM
binding to HCV IRES subdomain IIa (MST-shift), in words (HCV IRES subdomain IIa [5]): some weak binding
preQ1-riboswitch binding / selectivity (MST-shift), in words [6]: selectivity over the preQ1-riboswitch
SMILES: N=C(N)NC(=O)c1nc(Cl)c(N)nc1N [Compound 26, amiloride, reference compound]

binding to HCV IRES subdomain IIa (MST-shift), in words (HCV IRES subdomain IIa [5]): no binding
SMILES: CN(C)C(=O)COC(=O)Cc1ccc(OC(=O)c2ccc(NC(=N)N)cc2)cc1 [Compound 27, Camostat, reference compound]
FRET-signal change / conformational change of HCV IRES subdomain IIa, in words (HCV IRES subdomain IIa [1]): no binding

Kd ([7]; positive control, read-out: KD of positive control binding to SAM-VI-riboswitch (MST)): 0.772 µM
SMILES: C[S+](CC[C@H](N)C(=O)[O-])C[C@H]1O[C@@H](n2cnc3c(N)ncnc32)[C@H](O)[C@@H]1O (some centres unmarked) [SAM, reference compound]

Kd ([6]; positive control, read-out: KD of positive control binding to preQ1-riboswitch (MST)): 0.012 µM
SMILES: NCc1c[nH]c2nc(N)[nH]c(=O)c12 [preQ1]
